Reference: patent publication US12622896B2, “Antiviral compounds, compositions and methods of use” (THE UNIVERSITY OF BRITISH COLUMBIA, priority 2019, dated 2026)
Values joined by “and” are separate entries in the source; they are usually repeats but may differ in a detail not shown here. Equal entries are not always repeated.

Columns and labels:
HIV-1NL4-3 = experiment: Preliminary anti-HIV screen: CEM-GXR reporter cells co-cultured with HIV-1NL4-3 infected cells, GFP by flow cytometry; conditions: for anti-HIV activity, rank within the analogue series: within the C-2 substituted thiophene or thiazole series; for anti-HIV activity in the primary library screen: CEM-GXR cells, 1.25-10 μM, percent infected cells on day 3 (FIGS. 1A, 1B)
Method: (§2) The anti-HIV activity of the compounds was measured by a human T-cell reporter assay based on CEM-GXR cells. These cells express GFP due to the activation of the tat-dependent promoter upon HIV-1 infection, and the level of infection was monitored using Flow cytometric analysis (Guavasoft 2.2™ software, Guava HT8, Millipore™). Antiviral activity was evaluated in an assay that measures the inhibition of HIV-1 spread in a co-culture of CEM-GXR cells containing one percent of HIV-1 infected (GFP positive) cells.
The reporter CEM-GXR cells were infected by co-culture with one percent HIV-1NL4-3 infected (GFP positive) cells at the start of the assay (day 0). Individual compounds from the library was added in DMSO at varying concentrations to the culture in each microplate well immediately after the inoculation by infected cells. The final library compound concentration ranged from 1.25-10 μM and the final DMSO concentration was less than 0.1%. The percent of infected cells in the culture was determined by flow cytometry on day 3 using GFP expression as a readout.

PBMCs = experiment: PBMC viability by ViaCount assay over 11 days; format: cell-based, human; conditions: up to 11 days; for cellular toxicity in PBMCs: 0.1-10 μM range
[1] = test system: HIV-1IIIB (subtype B, X4-tropic); experiment: Anti-HIV viral spread assay in CEM-GXR cells, wild-type subtype B; format: cell-based; conditions: Human immunodeficiency virus 1; CEM-GXR cells, viral spread, nonlinear regression; read-out: EC50 (WT Subtype B)
Source text: (§1) To validate these EC50 values, the anti-HIV drug, emtricitabine (FTC) was included in the anti-HIV assay as a positive control.

[2] = test system: HIV-1 97USSN54 (subtype A, R5-tropic); experiment: Anti-HIV viral spread assay in CEM-GXR cells, wild-type subtype A; format: cell-based; conditions: Human immunodeficiency virus 1, nonlinear regression, read-out: EC50 (WT Subtype A)
Source text: as §1

CEM-GXR cells = experiment: Guava ViaCount cytotoxicity on CEM-GXR cells; format: cell-based, human; conditions: for toxicity of thiophene analogues: C-2 CF3 thiophene analogues; for toxicity in the preliminary screen: at 5 μM, data not shown
Method: The ViaCount™ assay was performed with the Guava easyCyte 8HT™ flow cytometer according to the manufacturer's manual (Guava Technologies™, Inc., Hayward, CA, USA). In brief, CEM-GXR cells were seeded in 96-well plates 80000 cells/well in the absence or presence of compound in various concentrations. Twenty-four hours later, 25 μL of cell suspension was mixed with 225 μL of Guava ViaCount™ reagent, and the mixture was incubated for 5 min at room temperature. Sample acquisition and data analysis were performed with the selection of EasyFit™ analysis feature using the ViaCount™ software module.
The potential cytotoxic effect of the molecules on CEM-GXR cells viability was determined by the Guava ViaCount assay. This assay differentially stains viable and nonviable cells based on their permeability to the DNA-binding dyes and uses the forward scatter (FSC) properties to distinguish free nuclei and cellular debris from intact cells to quantify cell count. CEM-GXR cells were incubated with compound at concentrations ranging between 0.5 and 100 μM for 24 h.

HIV = conditions: literature; cited from earlier work
[3] = test system: clinical isolate (11845 INI); experiment: Anti-HIV assay against INI-resistant clinical isolate 11845; conditions: Human immunodeficiency virus 1, read-out: EC50 against 11845 clinical isolate
Method: as §2
(§3) This Maraviroc-resistant variant derived from a R5 strain of HIV-1BaL contains five mutations within the envelope V3 loop: A19T, L20F, T22A, E25D, and I26V.

[4] = test system: Bcl-x transcript splicing; experiment: SR-protein induced Bcl-x splicing, X2.13 minigene in 293 cells, RT-PCR; format: cell-based; conditions: 10 μM
[5] = test system: PI-resistant isolate (2948); experiment: Anti-HIV assay against PI-resistant isolate 2948; conditions: Human immunodeficiency virus 1, read-out: EC50 against PI-resistant isolate 2948
Method: as §2

[6] = test system: Maraviroc-resistant variant of HIV-1BaL; experiment: Anti-HIV assay against Maraviroc-resistant R5 strain; conditions: Human immunodeficiency virus 1, read-out: EC50 against Maraviroc-resistant HIV-1 strain
Method: as §2, §3

[7] = test system: (N)NRTI-resistant isolate (E00443); experiment: Anti-HIV assay against (N)NRTI-resistant isolate E00443; conditions: Human immunodeficiency virus 1, read-out: EC50 against isolate E00443
Method: as §2

HIV-1Bal strain = experiment: PBMC infection assay, p24Gag ELISA day 11, HIV-1BaL; conditions: read-out: EC50 against HIV-1Bal in PBMC; three separate donors, one value per donor; p24 day 11; listed as GPS488
Method: Peripheral blood mononuclear cells (PBMC) were obtained from healthy HIV-negative donors following written informed consent and maintained in R10+ supplemented with 50 U/mL human IL-2. […] PBMC were activated with 5 μg/ml PHA and infected 3 days later with viral stocks at a multiplicity of infection (MOI) of 0.01. At 6 h post-infection, cells were washed and re-suspended in R10+ medium supplemented with 50 U/ml of IL-2 in the presence of GPS molecules or FTC as a control compound for an additional 11 days. The accumulation of p24Gag was quantified in culture supernatants at day 11 using an enzyme-linked immunosorbent assay (ELISA; Xpress Bio™), and the increase in p24Gag values was used as the measure of viral replication.

For [N-]=[N+]=Nc1ccc2nc(NC(=O)c3cnc(C(F)(F)F)s3)sc2c1 [12e, N-(6-azidobenzo[d]thiazol-2-yl)-2-(trifluoromethyl)thiazole-5-carboxamide], the “anti-HIV activity, rank within the analogue series” value (HIV-1NL4-3) was “most active”, the “cellular toxicity in PBMCs at 1 μM” value (PBMCs) was “minimal toxicity” and the “cellular toxicity in PBMCs” value (PBMCs) was “minimal toxicity”.
With Nc1nc(=O)n([C@@H]2CS[C@H](CO)O2)cc1F [FTC, emtricitabine, reference compound] the EC50 [1] was 0.0337 µM and the EC50 [2] was 0.0263 µM.
With O=C(Nc1nc2ccc(C(F)(F)F)cc2s1)c1ccc(C(F)(F)F)s1 [8c, 5-(trifluoromethyl)-N-(6-(trifluoromethyl)benzo[d]thiazol-2-yl)thiophene-2-carboxamide] the “toxicity of thiophene analogues” value (CEM-GXR cells) was “toxicity at low micromolar concentrations” and the “anti-HIV activity, rank within the analogue series” value (HIV-1NL4-3) was “most active”.
In the case of O=C(Nc1nc2c(Cl)cc(Cl)cc2s1)c1ccc([N+](=O)[O-])s1 [5e, N-(4,6-Dichlorobenzo[d]thiazol-2-yl)-5-nitrothiophene-2-carboxamide], the “toxicity in the preliminary screen” value (CEM-GXR cells) is reported as “toxicity” and the “anti-HIV activity in the primary library screen” value (HIV-1NL4-3) is reported as “significant activity”.
In the case of O=C(Nc1nc2ccc([N+](=O)[O-])cc2s1)c1ccc(C(F)(F)F)s1 [8b, N-(6-nitrobenzo[d]thiazol-2-yl)-5-(trifluoromethyl)thiophene-2-carboxamide], the “toxicity of thiophene analogues” value (CEM-GXR cells) is reported as “toxicity at low micromolar concentrations” and the “anti-HIV activity, rank within the analogue series” value (HIV-1NL4-3) is reported as “most active”.
For O=C(Nc1nc2ccc(C(F)(F)F)cc2s1)c1ccc([N+](=O)[O-])s1 [5h, 5-Nitro-N-(6-(trifluoromethyl)benzo[d]thiazol-2-yl)thiophene-2-carboxamide], the “anti-HIV activity in the primary library screen” value (HIV-1NL4-3) was “significant activity”.
With O=C(Nc1nc2ccc(F)cc2s1)c1ccc([N+](=O)[O-])s1 [5j, N-(6-Fluorobenzo[d]thiazol-2-yl)-5-nitrothiophene-2-carboxamide] the “anti-HIV activity in the primary library screen” value (HIV-1NL4-3) was “moderate to weak”.
In the case of O=C(Nc1nc2ccc(Cl)cc2s1)c1ccc([N+](=O)[O-])s1 [5d, N-(6-Chlorobenzo[d]thiazol-2-yl)-5-nitrothiophene-2-carboxamide], the “anti-HIV activity in the primary library screen” value (HIV-1NL4-3) is reported as “significant activity”.
For O=C(Nc1nc2ccc(Br)cc2s1)c1ccc([N+](=O)[O-])s1 [5k, N-(6-Bromobenzo[d]thiazol-2-yl)-5-nitrothiophene-2-carboxamide], the “anti-HIV activity in the primary library screen” value (HIV-1NL4-3) was “moderate to weak”.
With O=C(Nc1nc2ccccc2s1)c1ccc([N+](=O)[O-])s1 [5g, N-(Benzo[d]thiazol-2-yl)-5-nitrothiophene-2-carboxamide] the “anti-HIV activity in the primary library screen” value (HIV-1NL4-3) was “moderate to weak”.
In the case of O=C(Nc1nc2ccc([N+](=O)[O-])cc2s1)c1cnc(C(F)(F)F)s1 [12b, N-(6-nitrobenzo[d]thiazol-2-yl)-2-(trifluoromethyl)thiazole-5-carboxamide], the “anti-HIV activity, rank within the analogue series” value (HIV-1NL4-3) is reported as “most active”.
With O=C(Nc1nc2ccc(OC(F)(F)F)cc2s1)c1ccc([N+](=O)[O-])s1 [5b, 5-Nitro-N-(6-(trifluoromethoxy)benzo[d]thiazol-2-yl)thiophene-2-carboxamide] the “toxicity in the preliminary screen” value (CEM-GXR cells) was “toxicity” and the “anti-HIV activity in the primary library screen” value (HIV-1NL4-3) was “significant activity”.
In the case of O=C(Nc1nc2cc(Br)ccc2s1)c1ccc([N+](=O)[O-])s1 [5f, N-(5-Bromobenzo[d]thiazol-2-yl)-5-nitrothiophene-2-carboxamide], the “toxicity in the preliminary screen” value (CEM-GXR cells) is reported as “toxicity” and the “anti-HIV activity in the primary library screen” value (HIV-1NL4-3) is reported as “significant activity”.
In the case of O=[N+]([O-])c1ccc(C=Cc2ccc3ccccc3n2)s1 [compound 5350150, 2-(2-(5-nitro-2-thienyl)vinyl)quinolone], the HIV replication (HIV) is listed as “blocked HIV replication”.
In the case of O=C(Nc1nc2c(Cl)cccc2s1)c1ccc(C(F)(F)F)s1 [8a, N-(4-Chlorobenzo[d]thiazol-2-yl)-5-(trifluoromethyl)thiophene-2-carboxamide], the “anti-HIV activity, rank within the analogue series” value (HIV-1NL4-3) is reported as “most active”.
With O=C(Nc1nc2c(Cl)cccc2s1)c1cnc(C(F)(F)F)s1 [12a, N-(4-chlorobenzo[d]thiazol-2-yl)-2-(trifluoromethyl)thiazole-5-carboxamide] the EC50 [1] was 1.29 µM, the EC50 [3] was 0.951 µM and the “generation of Bcl-xL splicing variant with SRSF1 or SRSF9” value [4] was “did not have any impact”. The “abundance of Bcl-xS splice variant with SRSF2” value ([4]; 24 hour) was “increased abundance”, the “abundance of Bcl-xS splice variant with SRSF7” value ([4]; 24 hour) was “decreased abundance” and the EC50 [5] was 1.17 µM. The “anti-HIV activity, rank within the analogue series” value (HIV-1NL4-3) was “most active”, the EC50 [6] was 0.969 µM and the EC50 [2] was 0.955 µM. The “cellular toxicity in PBMCs at 1 μM” value (PBMCs) was “minimal toxicity”, the “cellular toxicity in PBMCs” value (PBMCs) was “some cellular toxicity” and the EC50 [7] was 1.16 µM. The EC50 (HIV-1Bal strain) was 0.335 µM and 0.044 µM and 0.2 µM.
In the case of O=C(Nc1nc2c(Cl)cccc2s1)c1ccc([N+](=O)[O-])s1 [5a, N-(4-Chlorobenzo[d]thiazol-2-yl)-5-nitrothiophene-2-carboxamide], the “anti-HIV activity in the primary library screen” value (HIV-1NL4-3) is reported as “significant activity”.
In the case of O=C(Nc1nc2ccc([N+](=O)[O-])cc2s1)c1ccc([N+](=O)[O-])s1 [5c, 5-Nitro-N-(6-nitrobenzo[d]thiazol-2-yl)thiophene-2-carboxamide], the “anti-HIV activity in the primary library screen” value (HIV-1NL4-3) is reported as “significant activity”.
With CCOC(=O)c1ccc2nc(NC(=O)c3ccc([N+](=O)[O-])s3)sc2c1 [5i, Ethyl 2-(5-nitrothiophene-2-carboxamido)benzo[d]thiazole-6-carboxylate] the “anti-HIV activity in the primary library screen” value (HIV-1NL4-3) was “moderate to weak”.
